Data as given in PubChem BioAssay AID328 (DTP/NCI, 2004).
“And” between values parts separate entries of the source, which are not always exact repeats. Equal entries are not always repeated. Toxic doses and inconclusive results are not listed. Residues, ends and D or L forms follow the SMILES beside them. *: point of attachment. Cbz = O=C(OCc1ccccc1)*; OtBu = CC(C)(C)O*

Test system: BDF1 mice, P388 leukemia ip, median survival T/C
Experiment: NCI In Vivo Anticancer Drug Screen. Data for tumor model P388 Leukemia (intraperitoneal) in B6D2F1 (BDF1) mice
Settings: endpoint: median survival time, higher = longer survival
How it was run: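 Reported as T/C, where T is the survival measurement in dosed animals and C the same measurement in vehicle controls.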

[1] = dose: 6.25 mg/kg/injection, schedule: Q04DX003 (ip), vehicle: saline sonified
[2] = dose: 12.5 mg/kg/injection, schedule: Q04DX003 (ip), vehicle: saline sonified
[3] = dose: 100.0 mg/kg/injection, schedule: Q01DX009 (ip), vehicle: saline
[4] = dose: 100.0 mg/kg/injection, schedule: Q04DX003 (ip), vehicle: saline
[5] = dose: 200.0 mg/kg/injection, schedule: Q04DX003 (ip), vehicle: saline
[6] = dose: 400.0 mg/kg/injection, schedule: Q04DX003 (ip), vehicle: saline
[7] = dose: 100.0 mg/kg/injection, schedule: Q01DX009 (ip), vehicle: saline with Tween-80
[8] = dose: 200.0 mg/kg/injection, schedule: Q01DX009 (ip), vehicle: saline with Tween-80
[9] = dose: 400.0 mg/kg/injection, schedule: Q01DX009 (ip), vehicle: saline with Tween-80
[10] = dose: 50.0 mg/kg/injection, schedule: Q04DX003 (ip), vehicle: saline with Tween-80
[11] = dose: 100.0 mg/kg/injection, schedule: Q04DX003 (ip), vehicle: saline with Tween-80
[12] = dose: 12.5 mg/kg/injection, schedule: Q01DX009 (ip), vehicle: saline with Tween-80
[13] = dose: 50.0 mg/kg/injection, schedule: Q01DX009 (ip), vehicle: saline with Tween-80
[14] = dose: 100.0 mg/kg/injection, schedule: Q01DX009 (ip), vehicle: Klucel (hydroxypropylcellulose) (HPC)
[15] = dose: 200.0 mg/kg/injection, schedule: Q01DX009 (ip), vehicle: Klucel (hydroxypropylcellulose) (HPC)
[16] = dose: 400.0 mg/kg/injection, schedule: Q01DX009 (ip), vehicle: Klucel (hydroxypropylcellulose) (HPC)

CSC(=S)NNC(=O)c1ccc([N+](=O)[O-])cc1
T/C (dose: 3.13 mg/kg/injection, schedule: Q04DX003 (ip), vehicle: saline sonified): 90 % of control | T/C [1]: 100 % of control | T/C [2]: 95 % of control

CC(C)(CCC(C)(C)NCCC#N)NCCC#N
T/C (dose: 50.0 mg/kg/injection, schedule: Q01DX009 (ip), vehicle: saline): 97 % of control and 104 % of control | T/C [3]: 101 % of control | T/C [4]: 98 % of control | T/C (dose: 200.0 mg/kg/injection, schedule: Q01DX009 (ip), vehicle: saline): 109 % of control and 119 % of control | T/C [5]: 109 % of control | T/C (dose: 400.0 mg/kg/injection, schedule: Q01DX009 (ip), vehicle: saline): 107 % of control | T/C [6]: 114 % of control

COC(=O)CCCCCCCCC[CH2][Hg][Cl]
T/C [1]: 100 % of control | T/C [2]: 100 % of control | T/C (dose: 25.0 mg/kg/injection, schedule: Q04DX003 (ip), vehicle: saline sonified): 122 % of control

COc1cc(O)c2c(c1O)C(=O)c1cc(C)ncc1C2=O
T/C [7]: 91 % of control | T/C [8]: 91 % of control | T/C [9]: 91 % of control

COC(=O)C(CCC(=O)OC(C)(C)C)NC(=O)C(NC(=O)OCc1ccccc1)C(C)C (stereo not drawn) (Cbz-Val-Glu(OtBu)-OMe; configuration not given here)
T/C [7]: 100 % of control | T/C [8]: 100 % of control | T/C [9]: 95 % of control

Oc1ccc(N=Cc2ccccc2O)cc1
T/C [3]: 108 % of control | T/C [4]: 105 % of control | T/C [5]: 100 % of control | T/C [6]: 110 % of control

Cc1cccc2c(Nc3ccc(NS(C)(=O)=O)cc3)c3ccccc3nc12
T/C (dose: 0.88 mg/kg/injection, schedule: Q01DX009 (ip), vehicle: saline with Tween-80): 123 % of control | T/C (dose: 2.93 mg/kg/injection, schedule: Q04DX003 (ip), vehicle: saline with Tween-80): 118 % of control | T/C (dose: 3.0 mg/kg/injection, schedule: Q01DX009 (ip), vehicle: saline with Tween-80): 153 % of control | T/C (dose: 5.0 mg/kg/injection, schedule: Q01DX009 (ip), vehicle: saline with Tween-80): 166 % of control | T/C (dose: 10.0 mg/kg/injection, schedule: Q01DX009 (ip), vehicle: saline with Tween-80): 203 % of control | T/C (dose: 20.0 mg/kg/injection, schedule: Q01DX009 (ip), vehicle: saline with Tween-80): 197 % of control | T/C (dose: 20.0 mg/kg/injection, schedule: Q04DX003 (ip), vehicle: saline with Tween-80): 150 % of control | T/C (dose: 22.0 mg/kg/injection, schedule: Q04DX003 (ip), vehicle: saline with Tween-80): 168 % of control | T/C (dose: 30.0 mg/kg/injection, schedule: Q04DX003 (ip), vehicle: saline with Tween-80): 154 % of control | T/C (dose: 33.0 mg/kg/injection, schedule: Q04DX003 (ip), vehicle: saline with Tween-80): 181 % of control | T/C [10]: 245 % of control | T/C (dose: 75.0 mg/kg/injection, schedule: Q04DX003 (ip), vehicle: saline with Tween-80): 259 % of control | T/C [11]: 204 % of control | T/C (dose: 200.0 mg/kg/injection, schedule: Q04DX003 (ip), vehicle: saline with Tween-80): 272 % of control

O=C(CS)CS
T/C (dose: 6.25 mg/kg/injection, schedule: Q01DX009 (ip), vehicle: water): 102 % of control | T/C (dose: 12.5 mg/kg/injection, schedule: Q01DX009 (ip), vehicle: water): 102 % of control | T/C (dose: 25.0 mg/kg/injection, schedule: Q01DX009 (ip), vehicle: water): 93 % of control | T/C (dose: 50.0 mg/kg/injection, schedule: Q01DX009 (ip), vehicle: water): 104 % of control

CC(=O)[O][Hg][CH]1CCC2OC1CC[CH]2[Hg][O]C(C)=O (stereo not drawn)
T/C (dose: 1.56 mg/kg/injection, schedule: Q01DX009 (ip), vehicle: saline with Tween-80): 101 % of control | T/C (dose: 3.13 mg/kg/injection, schedule: Q01DX009 (ip), vehicle: saline with Tween-80): 113 % of control | T/C (dose: 6.25 mg/kg/injection, schedule: Q01DX009 (ip), vehicle: saline with Tween-80): 111 % of control | T/C [12]: 104 % of control

CC(=O)OC/C(=N\Nc1ccc([N+](=O)[O-])cc1[N+](=O)[O-])c1ccccc1
T/C (dose: 3.13 mg/kg/injection, schedule: Q01DX001 (ip), vehicle: saline with Tween-80): 104 % of control | T/C (dose: 6.25 mg/kg/injection, schedule: Q01DX001 (ip), vehicle: saline with Tween-80): 100 % of control | T/C (dose: 12.5 mg/kg/injection, schedule: Q01DX001 (ip), vehicle: saline with Tween-80): 95 % of control

C1=CC(=P(c2ccccc2)(c2ccccc2)c2ccccc2)C=C1
T/C (dose: 50.0 mg/kg/injection, schedule: Q01DX010 (ip), vehicle: saline): 100 % of control | T/C (dose: 100.0 mg/kg/injection, schedule: Q01DX010 (ip), vehicle: saline): 100 % of control | T/C (dose: 200.0 mg/kg/injection, schedule: Q01DX010 (ip), vehicle: saline): 100 % of control | T/C (dose: 400.0 mg/kg/injection, schedule: Q01DX010 (ip), vehicle: saline): 100 % of control

O=C1/C(=C/c2ccccc2O)SC(=S)N1CCCN1CCOCC1
T/C [13]: 95 % of control | T/C [7]: 100 % of control | T/C [8]: 90 % of control

Cc1cnc(O[Si](C)(C)C)nc1O[Si](C)(C)C
T/C [7]: 100 % of control | T/C [8]: 91 % of control | T/C [9]: 116 % of control

CC(=Nc1ccccc1)C1=C(O)C(Cc2ccc(O)cc2)NC1=O (stereo not drawn)
T/C [13]: 110 % of control | T/C [7]: 101 % of control

Cc1nc2ccc3nc(N)nc(N)c3c2nc1C
T/C (dose: 50.0 mg/kg/injection, schedule: Q01DX001 (ip), vehicle: saline with Tween-80): 104 % of control | T/C (dose: 100.0 mg/kg/injection, schedule: Q01DX001 (ip), vehicle: saline with Tween-80): 101 % of control | T/C (dose: 200.0 mg/kg/injection, schedule: Q01DX001 (ip), vehicle: saline with Tween-80): 111 % of control

O=N[O-].O=N[O-].O=N[O-].[Co+3].[NH-]CC[N-]CC[NH-]
T/C [13]: 111 % of control

Cc1ccccc1C1c2ccccc2C(=O)c2cccc(C)c21 (stereo not drawn)
T/C (dose: 100.0 mg/kg/injection, schedule: Q01DX001 (ip), vehicle: Klucel (hydroxypropylcellulose) (HPC)): 104 % of control | T/C [14]: 105 % of control | T/C (dose: 100.0 mg/kg/injection, schedule: Q04DX003 (ip), vehicle: Klucel (hydroxypropylcellulose) (HPC)): 100 % of control | T/C (dose: 200.0 mg/kg/injection, schedule: Q01DX001 (ip), vehicle: Klucel (hydroxypropylcellulose) (HPC)): 109 % of control | T/C [15]: 100 % of control | T/C (dose: 200.0 mg/kg/injection, schedule: Q04DX003 (ip), vehicle: Klucel (hydroxypropylcellulose) (HPC)): 95 % of control | T/C (dose: 400.0 mg/kg/injection, schedule: Q01DX001 (ip), vehicle: Klucel (hydroxypropylcellulose) (HPC)): 100 % of control | T/C [16]: 100 % of control | T/C (dose: 400.0 mg/kg/injection, schedule: Q04DX003 (ip), vehicle: Klucel (hydroxypropylcellulose) (HPC)): 108 % of control

S=P(N1CCCCCC1)(N1CC1)N1CC1
T/C (dose: 16.5 mg/kg/injection, schedule: Q01DX009 (ip), vehicle: saline): 154 % of control | T/C (dose: 25.0 mg/kg/injection, schedule: Q01DX009 (ip), vehicle: saline): 195 % of control | T/C (dose: 37.5 mg/kg/injection, schedule: Q01DX009 (ip), vehicle: saline): 122 % of control

O=C1NC(=O)C2C3C=CC(C12)C1C2C(=O)NC(=O)C2C31 (stereo not drawn)
T/C [12]: 108 % of control | T/C [13]: 168 % of control

CC1=CC(=O)OC(C)(C)C1
T/C [4]: 100 % of control | T/C [5]: 100 % of control | T/C [6]: 100 % of control

O=C(NC(C(=O)O)C(O)c1cn(C(=O)OCc2ccccc2)cn1)OCc1ccccc1 (stereo not drawn)
T/C [13]: 113 % of control | T/C [7]: 110 % of control | T/C [8]: 98 % of control

COC(=O)CCC1([N+](=O)[O-])CCCCC1
T/C (dose: 25.0 mg/kg/injection, schedule: Q01DX009 (ip), vehicle: saline with Tween-80): 87 % of control | T/C (dose: 25.0 mg/kg/injection, schedule: Q04DX003 (ip), vehicle: saline with Tween-80): 92 % of control | T/C [13]: 95 % of control | T/C [10]: 92 % of control | T/C [7]: 95 % of control | T/C [11]: 88 % of control

CCOC(CNC(=O)OCc1ccccc1)OCC
T/C [14]: 105 % of control | T/C [15]: 100 % of control | T/C [16]: 105 % of control
